Biological target: 15-PGDH (Homo sapiens (Human), UniProt P15428)
Test: Detection of activity of 15-PGDH enzyme
Assay type: biochemical
Conditions: inhibitory activity against 15-PGDH enzyme; substrates β-NAD and PGF2α; fluorescence Ex/Em=340/450
Method: • a. A solution of pH 7.5 containing 50 mM Tris-HCl, 0.01% Tween 20 was prepared with ultrapure water as a reaction buffer; • b. A 10 mM mother liquor of the compound to be tested was prepared with DMSO, and then the reaction buffer was used to dilute the mother liquor of the compound to be tested to obtain solution 1 of the compound to be tested at a concentration of 40,000 nM, and then the solution 1 of the compound to be tested was serially diluted into solutions 2-9 (or 2-12) of the compound to be tested at 9 (or 11) concentrations with a gradient difference of three-fold. 5 μL of each concentration of solutions of the compound to be tested was respectively taken and added into a 384-well plate as test wells; • c. 5 μL of the reaction buffer was then added to the blank wells of the 384-well plate as positive control and blank control wells, respectively; • d. The reaction buffer was used to prepare a 15-PGDH protein solution at a concentration of 5 ng/μL, 5 μL of the 15-PGDH protein solution was taken and added to the test wells and positive control wells, and meanwhile 5 μL of the reaction buffer was added to the blank control wells, then the plate was centrifuged at 2000 rpm for 30 seconds; • e. The reaction buffer was used to prepare 5 mM $3-NAD and 2 mM PGF2α, respectively, which were mixed at 1:1 by volume to obtain a substrate mixture, 10 μL of the substrate mixture was taken and added to the test wells, positive control wells and blank control wells to start the reaction; • f. The fluorescence signal value (Ex/Em=340/450) of each well was detected continuously by using a multifunctional microplate reader.
• a) Continuous fluorescence signal values were analyzed by using the “kinetic calculations-slope calculation method” in the PHERAstar Data analysis software to obtain the slope of each test well; • b) The inhibition rate % was calculated by using the following formula: inhibition rate %=[1−(slope of test well-signal value of positive control well)/(signal value of blank control well-average signal value of positive control well)]×100%. • c) Calculation of IC50 and plotting of inhibition rate-dose curves: IC50 values were calculated by fitting compound concentrations and corresponding inhibition rates with a nonlinear regression (dose response-variable slope) via using GraphPad Prism 6.0. The formula was shown below:
Y=Bottom+(Top−Bottom)/(1+10^((Log IC50−X)*HillSlope)), wherein X is a log value of a concentration of the compound, and Y is inhibition rate %.

15-PGDH, sequence (P15428 whole entry): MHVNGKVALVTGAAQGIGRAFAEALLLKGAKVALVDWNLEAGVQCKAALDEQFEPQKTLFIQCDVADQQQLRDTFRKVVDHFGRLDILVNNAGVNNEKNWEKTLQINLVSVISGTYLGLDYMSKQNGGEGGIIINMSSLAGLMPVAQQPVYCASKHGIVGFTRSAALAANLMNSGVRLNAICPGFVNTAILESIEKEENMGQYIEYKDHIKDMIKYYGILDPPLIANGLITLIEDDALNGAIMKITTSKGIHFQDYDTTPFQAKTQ

| SMILES | IC50 |
| --- | --- |
| N#Cc1c(C(=O)N2CCCCC2)sc2nc(-c3ccc(N4CCOCC4)nc3)cnc12 [Example 43] | 10 to 20 nM |
| CN(C)c1ncc(-c2cnc3c(C(F)(F)F)c(C(=O)N4CCCCC4)sc3n2)cn1 [Example 88] | 10 to 20 nM |
| O=C(c1sc2nc(-c3c[nH]c4ccccc34)cnc2c1C1CC1)N1CCCCC1 [Example 16] | 10 to 20 nM |
| O=C(c1cc2ncc(-c3ccccc3)nc2s1)N1CCCCC1 [Example 100] | 10 to 20 nM |
| CC(C)c1c(C(=O)N2CCCCC2)sc2nc(-c3ccccc3)cnc12 [Example 99] | 10 to 20 nM |
| N#Cc1ccc(-c2cnc3c(C4CC4)c(C(=O)N4CCCCC4)sc3n2)cn1 [Example 11] | 10 to 20 nM |
| COc1ccc(-c2cnc3c(C#N)c(C(=O)N4CCCCC4)sc3n2)cn1 [Example 50] | 10 to 20 nM |
| O=C(c1sc2nc(-c3ccc4c(c3)OCCO4)cnc2c1C(F)(F)F)N1CCCCC1 [Example 76] | 10 to 20 nM |
| O=C(c1sc2nc(-c3ccccc3)cnc2c1O)N1CCCCC1 [Example 101] | 50 to 100 nM |
| Cc1c(C(=O)N2CCCCC2)sc2nc(-c3ccccc3)cnc12 [Example 96] | 10 to 20 nM |
| Cc1ccc(-c2cnc3c(C#N)c(C(=O)N4CCCCC4)sc3n2)cn1 [Example 51] | 10 to 20 nM |
| N#Cc1ccc(-c2cnc3c(C(F)(F)F)c(C(=O)N4CCCCC4)sc3n2)cn1 [Example 67] | 10 to 20 nM |
| Nc1cc(-c2cnc3c(C4CC4)c(C(=O)N4CCCCC4)sc3n2)ccn1 [Example 28] | 3 to 10 nM |
| N#Cc1c(C(=O)N2CCCCC2)sc2nc(-c3ccc4nccn4c3)cnc12 [Example 47] | 3 to 10 nM |
| O=C(c1sc2nc(-c3ccc4nccn4c3)cnc2c1C(F)(F)F)N1CCCCC1 [Example 77] | 3 to 10 nM |
| Cc1noc(C)c1-c1cnc2c(C3CC3)c(C(=O)N3CCCCC3)sc2n1 [Example 8] | 3 to 10 nM |
| COc1cc(-c2cnc3c(C(F)(F)F)c(C(=O)N4CCCCC4)sc3n2)ccn1 [Example 85] | 3 to 10 nM |
| O=C(c1sc2nc(-c3ccc(F)nc3)cnc2c1C(F)(F)F)N1CCCCC1 [Example 79] | 3 to 10 nM |
| Cn1cc(-c2cnc3c(C(F)(F)F)c(C(=O)N4CCCCC4)sc3n2)ccc1=O [Example 71] | 3 to 10 nM |

| SMILES | IC50 |
| --- | --- |
| O=C(c1sc2nc(-c3ccc(F)nc3)cnc2c1C1CC1)N1CCCCC1 [Example 27] | 3 to 10 nM |
| CCc1c(C(=O)N2CCCCC2)sc2nc(-c3ccccc3)cnc12 [Example 97] | 3 to 10 nM |
| O=C(c1sc2nc(-c3ccnc(C(F)(F)F)c3)cnc2c1C1CC1)N1CCCCC1 [Example 25] | 10 to 20 nM |
| N#Cc1c(C(=O)N2CCCCC2)sc2nc(-c3cncs3)cnc12 [Example 56] | 3 to 10 nM |
| COc1cc(-c2cnc3c(C#N)c(C(=O)N4CCCCC4)sc3n2)ccn1 [Example 55] | 10 to 20 nM |
| CN(C)c1ncc(-c2cnc3c(C4CC4)c(C(=O)N4CCCCC4)sc3n2)cn1 [Example 30] | 3 to 10 nM |
| Cc1noc(C)c1-c1cnc2c(C(F)(F)F)c(C(=O)N3CCCCC3)sc2n1 [Example 70] | 10 to 20 nM |
| O=C(c1sc2nc(-c3cncs3)cnc2c1C1CC1)N1CCCCC1 [Example 29] | 3 to 10 nM |
| Cn1cc(-c2cnc3c(C(F)(F)F)c(C(=O)N4CCCCC4)sc3n2)cn1 [Example 68] | 3 to 10 nM |
| O=C(c1sc2nc(-c3ccc4ncsc4c3)cnc2c1C1CC1)N1CCCCC1 [Example 13] | 3 to 10 nM |
| COc1ccc(-c2cnc3c(C(F)(F)F)c(C(=O)N4CCCCC4)sc3n2)cn1 [Example 80] | 3 to 10 nM |
| COc1ncc(-c2cnc3c(C(F)(F)F)c(C(=O)N4CCCCC4)sc3n2)cn1 [Example 64, (3-(2-methoxypyrimidin-5-yl)-7-(trifluoromethyl)thieno[2,3-b]pyrazin-6-yl)(piperidin-1-yl)methanone] | 3 to 10 nM |
| Nc1cc(-c2cnc3c(C(F)(F)F)c(C(=O)N4CCCCC4)sc3n2)ccn1 [Example 83] | 3 to 10 nM |
| CN(C)c1ncc(-c2cnc3c(C#N)c(C(=O)N4CCCCC4)sc3n2)cn1 [Example 58] | 3 to 10 nM |
| O=C(c1sc2nc(-c3ccc4c(c3)OCCO4)cnc2c1C1CC1)N1CCCCC1 [Example 21] | 3 to 10 nM |
| O=C(c1sc2nc(-c3cnc(N4CCOCC4)nc3)cnc2c1C(F)(F)F)N1CCCCC1 [Example 89] | 10 to 20 nM |
| O=C(c1sc2nc(-c3ccncc3)cnc2c1C(F)(F)F)N1CCCCC1 [Example 72] | 3 to 10 nM |
| O=C(c1sc2nc(-c3ccnc(F)c3)cnc2c1C(F)(F)F)N1CCCCC1 [Example 65] | 3 to 10 nM |
| Cc1cc(-c2cnc3c(C#N)c(C(=O)N4CCCCC4)sc3n2)ccn1 [Example 57] | 3 to 10 nM |

Continued, values first:

| IC50 | SMILES |
| --- | --- |
| 3 to 10 nM | CN1Cc2cc(-c3cnc4c(C(F)(F)F)c(C(=O)N5CCCCC5)sc4n3)ccc2C1=O [Example 94] |
| 3 to 10 nM | CN1Cc2cc(-c3cnc4c(C#N)c(C(=O)N5CCCCC5)sc4n3)ccc2C1=O [Example 62] |
| 3 to 10 nM | COc1c(C(=O)N2CCCCC2)sc2nc(-c3ccccc3)cnc12 [Example 95] |
| 3 to 10 nM | O=C(c1sc2nc(-c3cncs3)cnc2c1C(F)(F)F)N1CCCCC1 [Example 86] |
| 3 to 10 nM | N#Cc1c(C(=O)N2CCCCC2)sc2nc(-c3ccc4ncsc4c3)cnc12 [Example 48] |
| 3 to 10 nM | O=C(c1sc2nc(-c3ccnc(F)c3)cnc2c1C1CC1)N1CCCCC1 [Example 4] |
| 3 to 10 nM | O=C(c1sc2nc(-c3cccs3)cnc2c1C1CC1)N1CCCCC1 [Example 17] |
| < 3 nM | Nc1ncc(-c2cnc3c(C4CC4)c(C(=O)N4CCCCC4)sc3n2)cn1 [Example 31] |
| < 3 nM | O=C(c1sc2nc(-c3cnc(N4CCOCC4)nc3)cnc2c1C1CC1)N1CCCCC1 [Example 3] |
| 3 to 10 nM | N#Cc1c(C(=O)N2CCCCC2)sc2nc(-c3cnc(N4CCOCC4)nc3)cnc12 [Example 59] |
| 3 to 10 nM | N#Cc1c(C(=O)N2CCCCC2)sc2nc(-c3cnc(N)nc3)cnc12 [Example 60] |
| 3 to 10 nM | O=C(c1sc2nc(-c3cccnc3)cnc2c1C1CC1)N1CCCCC1 [Example 7] |
| < 3 nM | Cn1cc(-c2cnc3c(C4CC4)c(C(=O)N4CCCCC4)sc3n2)ccc1=O [Example 18] |
| 3 to 10 nM | O=C(c1sc2nc(-c3ccccc3)cnc2c1C(F)(F)F)N1CCCCC1 [Example 63, (3-phenyl-7-(trifluoromethyl)thieno[2,3-b]pyrazin-6-yl)(piperidin-1-yl)methanone] |
| < 3 nM | Cc1ccc(-c2cnc3c(C4CC4)c(C(=O)N4CCCCC4)sc3n2)cn1 [Example 24] |
| < 3 nM | O=C(c1sc2nc(-c3ccc4nccn4c3)cnc2c1C1CC1)N1CCCCC1 [Example 12] |

| IC50 | SMILES |
| --- | --- |
| 3 to 10 nM | N#Cc1c(C(=O)N2CCCCC2)sc2nc(-c3ccc4nccnc4c3)cnc12 [Example 45] |
| 3 to 10 nM | Cn1cc(-c2cnc3c(C4CC4)c(C(=O)N4CCCCC4)sc3n2)cn1 [Example 10] |
| 3 to 10 nM | Cc1cc(-c2cnc3c(C4CC4)c(C(=O)N4CCCCC4)sc3n2)ccn1 [Example 2, (7-cyclopropyl-3-(2-methylpyridin-4-yl)thieno[2,3-b]pyrazin-6-yl)(piperidin-1-yl)methanone] |
| 3 to 10 nM | O=C(c1sc2nc(-c3ccc4c(c3)OCO4)cnc2c1C1CC1)N1CCCCC1 [Example 14] |
| 3 to 10 nM | O=C(c1sc2nc(-c3ccncc3)cnc2c1C1CC1)N1CCCCC1 [Example 9] |
| 3 to 10 nM | O=C(c1sc2nc(-c3ccc(N4CCOCC4)nc3)cnc2c1C1CC1)N1CCCCC1 [Example 19] |
| 3 to 10 nM | N#Cc1c(C(=O)N2CCCCC2)sc2nc(-c3cncnc3)cnc12 [Example 61] |
| < 3 nM | O=C(c1sc2nc(-c3ccccc3)cnc2c1Br)N1CCCCC1 [Example 98] |
| 3 to 10 nM | O=C(c1sc2nc(-c3ccc4nccnc4c3)cnc2c1C1CC1)N1CCCCC1 [Example 20] |
| < 3 nM | O=C(c1sc2nc(-c3ccccc3)cnc2c1C1CC1)N1CCCCC1 [Example 1, (7-cyclopropyl-3-phenylthieno[2,3-b]pyrazin-6-yl)(piperidin-1-yl)methanone] |
| < 3 nM | COc1cc(-c2cnc3c(C4CC4)c(C(=O)N4CCCCC4)sc3n2)ccn1 [Example 26] |
| < 3 nM | O=C(c1sc2nc(-c3cccs3)cnc2c1C(F)(F)F)N1CCCCC1 [Example 69] |
| < 3 nM | Cc1cc(-c2cnc3c(C(F)(F)F)c(C(=O)N4CCCCC4)sc3n2)ccn1 [Example 87] |
| < 3 nM | O=C(c1sc2nc(-c3cncnc3)cnc2c1C1CC1)N1CCCCC1 [Example 22] |
| < 3 nM | O=C(c1sc2nc(-c3cccnc3)cnc2c1C(F)(F)F)N1CCCCC1 [Example 74] |
| < 3 nM | CN1Cc2cc(-c3cnc4c(C5CC5)c(C(=O)N5CCCCC5)sc4n3)ccc2C1=O [Example 32] |

Reference: patent US20260001892A1, “COMPOUND FOR REGULATING AND CONTROLLING ACTIVITY OF 15-PGDH AND PREPARATION METHOD THEREFOR” (SCINNOHUB PHARMACEUTICAL CO., LTD., priority 2022, published 2026)
